The values that follow come from patent US6796312B2, “Process and apparatus for the removal of toxic components of tobacco smoke and the standardization of the health hazards related to those components” (priority 2001, dated 2004).

In general, inhibition refers to the drop in the measured response relative to a control, in per cent.

Read-outs that look alike come from different tables or passages of the source.

Assay [1] has as its system human oral fluid-cell harvests. Briefly: cells. Type of assay: cell-based.
Assay [2] relates to peripheral inflammatory cells of oral fluid-cell harvests. Type of assay: cell-based, human.
Assay [3] has as its system polymorphonuclear neutrophils. To be noted: cited from earlier work.
Assay [4] deals with granular masses and polymorphonuclear neutrophils. Conditions: cited from earlier work.
The subject of assay [5] is myeloperoxidase (verdoperoxidase). To be noted: cited from earlier work.
The target in the next assay is T1, myeloperoxidase (Homo sapiens, UniProt P05164).
T1 construct: Homogenates were centrifuged at 1,300×g for ten (10) minutes and the supernatant extracts were kept during the course of analysis; from tissue; host or cells: human sputum / oral fluid-cell harvest (neutrophil-rich) homogenate supernatants
T1 sequence (P05164 49-745): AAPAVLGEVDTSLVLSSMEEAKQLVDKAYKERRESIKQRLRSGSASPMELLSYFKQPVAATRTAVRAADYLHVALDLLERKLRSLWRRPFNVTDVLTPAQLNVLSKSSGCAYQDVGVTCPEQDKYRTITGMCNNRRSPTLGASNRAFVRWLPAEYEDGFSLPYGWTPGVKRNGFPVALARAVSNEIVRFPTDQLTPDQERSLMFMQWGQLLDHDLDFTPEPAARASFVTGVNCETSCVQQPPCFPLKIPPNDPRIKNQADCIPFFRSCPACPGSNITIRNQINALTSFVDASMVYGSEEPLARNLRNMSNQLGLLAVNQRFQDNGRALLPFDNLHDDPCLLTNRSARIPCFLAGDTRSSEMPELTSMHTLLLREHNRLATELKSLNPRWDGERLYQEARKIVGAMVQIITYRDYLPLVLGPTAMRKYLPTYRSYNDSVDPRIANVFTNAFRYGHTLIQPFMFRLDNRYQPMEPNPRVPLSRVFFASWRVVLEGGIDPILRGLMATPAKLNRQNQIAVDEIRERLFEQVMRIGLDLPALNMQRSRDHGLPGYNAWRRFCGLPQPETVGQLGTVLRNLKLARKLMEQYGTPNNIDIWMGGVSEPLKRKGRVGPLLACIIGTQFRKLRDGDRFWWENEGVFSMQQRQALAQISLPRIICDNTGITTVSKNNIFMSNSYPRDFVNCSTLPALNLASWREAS
Briefly: NADH2-NDGA-myeloperoxidase spectrophotometric assay of sputum / oral fluid-cell harvest supernatant extracts. To be noted: for IC50: read-out: concentration that produces fifty (50) percent inhibition of myeloperoxidase. Type of assay: biochemical. Here is the method:
Aliquots of fresh human oral fluid-cell harvests as exemplified above or fresh human sputum collected by the donors over a twenty-four (24) hour period were disrupted employing either Ten Broeck glass homogenizers or the Virtis homogenizer. Homogenates were centrifuged at 1,300×g for ten (10) minutes and the supernatant extracts were kept during the course of analysis at zero degrees centigrade (0° C.). Other reactants were incubated at thirty-five degrees centigrade (35° C.). Reduced nicotinamide-adenine dinucleotide oxidase and norhydroguaiaretic acid-myeloperoxidase activities were followed at 340 mμ or (nm) employing the Beckman Model DU Spectrophotometer temperature regulated at thirty-five degrees centigrade (35° C.). All specific reactions were run as duplicate assays.
Although this oxidation was very small under the conditions of experiment, an interaction correction factor was determined and applied to all reduced nicotinamide-adenine dinucleotide-nordihydroguaiaretic acid-mycloperoxidase assay reactions.
The velocity constants for the myeloperoxidase reactions behaved and were computed in accord with zero order reaction kinetics. […] In most instances, the activities followed first order reaction kinetics for a short interval and then ceased abruptly. The latter may be due to the presence or accumulation of variable concentrations of an unidentified inhibitor or inhibitors in the supernatants. Since in all cases the oxidase activities were very slow relative to the myeloperoxidase activities, the difference in optical density over the course of the reactions (up to ten (10) minutes) for the oxidase system were computed in the same manner as the data for the rapid myeloperoxidase system. Thus, all velocity constants were expressed in μ Moles of reduced nicotinamide-adenine dinucleotide oxidized per minute per ml. of oral fluid-cell harvest or sputum. The small oxidase activities were applied as a correction factor in the computation of all myeloperoxidase velocity constants.
The pH optimum of the myeloperoxidase system was determined. When fresh nordihydroguaiaretic acid solutions were prepared and interaction rates with reduced nicotinamide-adenine dinucleotide were subtracted as controls from oral lavage and sputum supernatant myeloperoxidase activities, the net velocity constants were zero (0). On the other hand, five (5) hour old nordihydroguaiaretic acid solutions yielded optimal activities at approximately pH 7.4. Subsequent experiments uniformly were carried out at pH 7.0 using five (5) hour old solutions to minimize the rates of the auto oxidation of nordihydroguaiaretic acid and oxidation of reduced nicotinamide-adenine dinucleotide by nordihydroguaiaretic acid when employing alkaline pH's.

Setting [6] is: Homo sapiens, read-out: inhibition of aerobic (d) glucose dependent metabolism.
[7] abbreviates: Homo sapiens, read-out: inhibition of anaerobic glucolysis.
Setting [8] is: Homo sapiens, read-out: inhibition of aerobic endogenous metabolism.
The mark [9] stands for this setting: Homo sapiens, read-out: inhibition of anaerobic glucose metabolism.
Setting [10] is: with added 0.024 Molar hydrogen peroxide.

As to `CC=O` [Acetaldehyde, acetaldehyde], the figures for the inhibition at 100 µM in assay [1] (setting [6]) and in assay [1] (setting [7]) were 25% and 10%, respectively. Also, the inhibition at 1000 µM in assay [1] (setting [6]) was 60%; in assay [1] (setting [7]) it was 30%.
For the molecule `C=CC=O` [Acrolein, acrolein], in assay [1] (setting [6]), the inhibition at 1 µM stood at 49% and the inhibition at 2.5 µM amounted to 81%. Also, in assay [1] (setting [8]), the inhibition at 1 µM turned out to be 48% and the inhibition at 2.5 µM is 66%. For the same molecule, in assay [1] (setting [9]), the inhibition at 10 µM is 18% and the inhibition at 25 µM was 43%. Moreover, the “peripheral inflammatory cell function” value in assay [2] is on record as “impaired to virtual total loss of function”.
Turning to `OO` [Hydrogen peroxide, hydrogen peroxide], the “inhibition of hydrogen peroxide-dependent nitro-blue tetrazolium reducing enzyme activity” value in assay [3] (0.15 Molar hydrogen peroxide) is “totally”. Also, the “inhibition of endogenous nitro-blue tetrazolium reducing enzyme activity in granular masses” value in assay [4] (0.15 Molar hydrogen peroxide) is listed as 100%.
Turning to `NO` [Hydroxylamine, hydroxylamine], the “inhibition of hydrogen peroxide-dependent nitro-blue tetrazolium reducing enzyme activity” value in assay [3] (setting [10]) is listed as “inhibited markedly”. For the same molecule, the “inhibition of endogenous reactions in polymorphonuclear neutrophils and granular masses” value in assay [4] is given as “not inhibited”. The “inhibition of myeloperoxidase activity” value in assay [5] (Agner 1941, 1958) is recorded as “inhibited”. The IC50 at myeloperoxidase (supernatant extracts) is 0.33 mM.
Take `[O]N=O` [Nitrogen dioxide, nitrogen dioxide]: the “inhibition of aerobic metabolism” value in assay [1] is reported as “variable and, at times, doubtful inhibitions”. In addition, the “peripheral inflammatory cell function” value in assay [2] was “enhanced peripheral inflammatory cell function”.
As to `[F-].[Na+]` [Sodium Flouride, sodium fluoride], the “inhibition of myeloperoxidase activity” value in assay [5] is recorded as “inhibited”. Besides, on myeloperoxidase, the IC50 was determined as 63 mM.
Turning to `[Cu+2]` [cupric ion], in assay [3] (low concentrations), the “inhibition of exogenous hydrogen peroxide-dependent reaction in polymorphonuclear neutrophils” value is reported as “inhibited completely”. For the same molecule, in assay [4] (low concentrations), the “inhibition of endogenous reactions in granular masses and polymorphonuclear neutrophils” value is listed as “inhibited completely”.
Turning to `O=C(O)CI` [iodoacetate], the “inhibition of exogenous hydrogen peroxide-dependent reaction in polymorphonuclear neutrophils” value in assay [3] is listed as “inhibited completely”. The “inhibition of endogenous reactions in granular masses and polymorphonuclear neutrophils” value in assay [4] is given as “inhibited completely”.
As for nitric oxide [Nitrogen oxide], the influence on metabolism result in assay [1] is “did not influence”. Moreover, the “influence on cell function” value in assay [2] is given as “did not influence”.

B1: crystalline catalase (protein, UniProt P00432 2-527, looked up)
Catalase: ADNRDPASDQMKHWKEQRAAQKPDVLTTGGGNPVGDKLNSLTVGPRGPLLVQDVVFTDEMAHFDRERIPERVVHAKGAGAFGYFEVTHDITRYSKAKVFEHIGKRTPIAVRFSTVAGESGSADTVRDPRGFAVKFYTEDGNWDLVGNNTPIFFIRDALLFPSFIHSQKRNPQTHLKDPDMVWDFWSLRPESLHQVSFLFSDRGIPDGHRHMNGYGSHTFKLVNANGEAVYCKFHYKTDQGIKNLSVEDAARLAHEDPDYGLRDLFNAIATGNYPSWTLYIQVMTFSEAEIFPFNPFDLTKVWPHGDYPLIPVGKLVLNRNPVNYFAEVEQLAFDPSNMPPGIEPSPDKMLQGRLFAYPDTHRHRLGPNYLQIPVNCPYRARVANYQRDGPMCMMDNQGGAPNYYPNSFSAPEHQPSALEHRTHFSGDVQRFNSANDDNVTQVRTFYLKVLNEEQRKRLCENIAGHLKDAQLFIQKKAVKNFSDVHPEYGSRIQALLDKYNEEKPKNAVHTYVQHGSHLSAREKANL
As to B1, in assay [3] (setting [10]), the “inhibition of hydrogen peroxide-dependent nitro-blue tetrazolium reducing enzyme activity” value is reported as “inhibited markedly”. Also, in assay [4], the “inhibition of endogenous reactions in polymorphonuclear neutrophils and granular masses” value is “not inhibited”. Further, the “inhibition of myeloperoxidase activity” value was about 50% with myeloperoxidase (14 units of crystalline catalase added) and about 90% in the assay with myeloperoxidase (41 units of crystalline catalase added).
